Where two headings read alike, the source gives them in different places.
How the values were obtained:
Vero cells = assay: Simultaneous toxicity investigation (XTT), Vero cells; format: cell-based; set-up: unit not given here; details: for TC50 (2d): Table 2, Examples 83 to 124, 2d; for TC50 (6d): Table 2, Examples 83 to 124, 6d
Method: (§1) The inner 60 wells of 96 well tissue culture plates were seeded with Vero cells at 3×10^4 cells/well (1×10^4 cells/well for toxicity studies) in 100 or 150 μl of medium and incubated at 37° C. overnight or until nearing confluency. For primary screen, 25 μl compounds were added directly to 100 μl medium in single wells to duplicate plates. A third plate was prepared for simultaneous toxicity investigation.
(§2) For follow-up investigation, 70 μl of compound in duplicate wells were added directly to culture medium at 3.2× final concentration and ½ log serially diluted down columns of plate. A duplicate plate was prepared for simultaneous toxicity investigation.
Cells were infected with 25 μl RSV to give m.o.i.≈0.2. […] Some 0.25 μl/ml PMS were added to stock XTT solution, final conc. […]. Then 25 μl warmed XTT/PMS solution were added to each well and incubated for 5 hours at 37° C. Plates were shaken (DynaTech Vari-Shaker) vigorously for 10 mins and allowed to cool for 15 mins before sealing. Absorbance at 450 nm was measured and data analysed using Microsoft Excel software.

RSV = assay: XTT assay, RSV-infected Vero cells; format: cell-based, Respiratory Syncytial Virus (RSV); details: Vero cells infected with RSV, m.o.i.≈0.2, 6 days at 33° C.
Method: Examples 1 to 74 and 83 to 124 were tested using the following protocol.
as §1, §2
Cells were infected with 25 μl RSV to give m.o.i.≈0.2. Some 100 μl of sterile distilled water were added to the outer wells of the plate and incubated at 33° C. for 6 days. Some 0.25 μl/ml PMS were added to stock XTT solution, final conc. […]. Then 25 μl warmed XTT/PMS solution were added to each well and incubated for 5 hours at 37° C. Plates were shaken (DynaTech Vari-Shaker) vigorously for 10 mins and allowed to cool for 15 mins before sealing. Absorbance at 450 nm was measured and data analysed using Microsoft Excel software.
Maximum OD450nm reading (uninfected, untreated control cells) corresponded to 100% inhibition. Minimum OD450nm readings (infected control cells) corresponded to 0% inhibition. Log 10 concentration was plotted against OD450nm and IC50 (Table 1) values were calculated from either reading 50% value from graph or using regression analysis.

[1] = human respiratory syncytial virus, Vero, 144 h, read-out: XTT IC50 (uM), Table 2, Examples 83 to 124
[2] = Table 2, Examples 83 to 124, read-out: XTT IC50

| Molecule | TC50 (2d) (Vero cells) | TC50 (6d) (Vero cells) | IC50 (RSV; [1]) [µM] | IC50 (RSV; [2]) [µM] |
| --- | --- | --- | --- | --- |
| COc1ccc(C(=O)NC2N=C(c3ccc(C(F)(F)F)cc3)c3ccccc3NC2=O)cc1 (stereo not drawn) [Example 103, 4-Methoxy-N-[2-oxo-5-(4-trifluoromethyl-phenyl)-2,3-dihydro-1H-benzo[e][1,4]diazepin-3-yl]-benzamide] | >100 | 30 | 7 | – |
| COc1ccc(F)cc1C(=O)NC1N=C(c2ccccc2)c2ccccc2NC1=O (stereo not drawn) [Example 92, 5-Fluoro-2-methoxy-N-(2-oxo-5-phenyl-2,3-dihydro-1H-benzo[e][1,4]diazepin-3-yl)-benzamide] | 100 | 100 | < 0.3 | – |
| COc1ccc(CNC(=O)NC2N=C(c3ccccc3)c3ccccc3NC2=O)cc1 (stereo not drawn) [Example 85, 1-(4-Methoxy-benzyl)-3-(2-oxo-5-phenyl-2,3-dihydro-1H-benzo[e][1,4]diazepin-3-yl)-urea] | >100 | >100 | 4 | – |
| O=C(Nc1ccc(OC(F)(F)F)cc1)NC1N=C(c2ccccc2)c2ccccc2NC1=O (stereo not drawn) [Example 116, 1-(2-Oxo-5-phenyl-2,3-dihydro-1H-benzo[e][1,4]diazepin-3-yl)-3-(4-trifluoromethoxy-phenyl)-urea] | 20 | 20 | 2 | – |
| O=C(NC1N=C(c2ccccc2)c2ccccc2NC1=O)OCc1ccccc1 (stereo not drawn) [Example 114, (2-Oxo-5-phenyl-2,3-dihydro-1H-benzo[e][1,4]diazepin-3-yl)-carbamic acid benzyl ester] | >100 | 60 | 5 | – |
| N-[5-(3-Chloro-phenyl)-2-oxo-5-phenyl-2,3-dihydro-1H-benzo[e][1,4]diazepin-3-yl]-2-nitro-benzamide [Example 101] | 100 | 100 | – | 2.5 |
| CS(=O)(=O)c1ccc(C(=O)NC2N=C(c3ccccc3)c3ccccc3NC2=O)c(Cl)c1 (stereo not drawn) [Example 112, 2-Chloro-4-methanesulfonyl-N-(2-oxo-5-phenyl-2,3-dihydro-1H-benzo[e][1,4]diazepin-3-yl)-benzamide] | >100 | >100 | 1.5 | – |
| N-[5-(3-Chloro-phenyl)-2-oxo-5-phenyl-2,3-dihydro-1H-benzo[e][1,4]diazepin-3-yl]-4-methoxy-benzamide [Example 100] | >100 | 100 | – | 4 |
| N-[5-(3-Methoxy-phenyl)-2-oxo-5-phenyl-2,3-dihydro-1H-benzo[e][1,4]diazepin-3-yl]nitro-benzamide [Example 110] | >100 | >100 | – | 5 |
| Cc1cc(C)cc(NC(=O)NC2N=C(c3ccccc3)c3ccccc3NC2=O)c1 (stereo not drawn) [Example 115, 1-(3,5-Dimethyl-phenyl)-3-(2-oxo-5-phenyl-2,3-dihydro-1H-benzo[e][1,4]diazepin-3-yl)-urea] | >100 | 60 | 1.5 | – |
| COc1ccccc1CCC(=O)NC1N=C(c2ccccc2)c2ccccc2NC1=O (stereo not drawn) [Example 96, 3-(2-Methoxy-phenyl)-N-(2-oxo-5-phenyl-2,3-dihydro-1H-benzo[e][1,4]diazepin-3-yl)propionamide] | >100 | >100 | 5 | – |
| COc1ccccc1C(=O)NC1N=C(c2cccc(Cl)c2)c2ccccc2NC1=O (stereo not drawn) [Example 99, N-[5-(3-Chloro-phenyl)-2-oxo-2,3-dihydro-1H-benzo[e][1,4]diazepin-3-yl]-2-methoxy-benzamide] | 100 | >100 | 1 | – |
| CCOc1ccccc1C(=O)NC1N=C(c2ccccc2)c2ccccc2NC1=O (stereo not drawn) [Example 106, 2-Ethoxy-N-(2-oxo-5-phenyl-2,3-dihydro-1H-benzo[e][1,4]diazepin-3-yl)-benzamide] | >100 | >100 | 0.7 | – |
| COc1ccc(C(=O)NC2N=C(c3cccc(C(F)(F)F)c3)c3ccccc3NC2=O)cc1 (stereo not drawn) [Example 105] | >100 | >100 | – | 9 |
| CN(C)c1ccccc1C(=O)NC1N=C(c2ccccc2)c2ccccc2NC1=O (stereo not drawn) [Example 113, 2-Dimethylamino-N-(2-oxo-5-phenyl-2,3-dihydro-1H-benzo[e][1,4]diazepin-3-yl)-benzamide] | >100 | >100 | 1.5 | – |
| O=C(Nc1c(Cl)cccc1Cl)NC1N=C(c2ccccc2)c2ccccc2NC1=O (stereo not drawn) [Example 124, 1-(2,6-Dichloro-phenyl)-3-(2-oxo-5-phenyl-2,3-dihydro-1H-benzo[e][1,4]diazepin-3-yl)-urea] | 70 | 60 | 5 | – |
| COc1ccc(Br)c(C(=O)NC2N=C(c3ccccc3)c3ccccc3NC2=O)c1 (stereo not drawn) [Example 108, 2-Bromo-5-methoxy-N-(2-oxo-5-phenyl-2,3-dihydro-1H-benzo[e][1,4]diazepin-3-yl)-benzamide] | >100 | >100 | 2 | – |
| Cc1cccc(C)c1NC(=O)NC1N=C(c2ccccc2)c2ccccc2NC1=O (stereo not drawn) [Example 120, 1-(2,6-Dimethyl-phenyl)-3-(2-oxo-5-phenyl-2,3-dihydro-1H-benzo[e][1,4]diazepin-3-yl)-urea] | >100 | 60 | 6 | – |
| COc1ccc(C(=O)NC2N=C(c3ccccc3F)c3cc(Cl)ccc3NC2=O)cc1 (stereo not drawn) [Example 83, N-[7-Chloro-5-(2-fluoro-phenyl)-2-oxo-2,3-dihydro-1H-benzo[e][1,4]diazepine-3-yl]-4-methoxy-benzamide] | >100 | 32 | 6 | – |
| COc1cc(C(=O)NC2N=C(c3ccccc3)c3ccccc3NC2=O)ccc1[N+](=O)[O-] (stereo not drawn) [Example 95, 3-Methoxy-4-nitro-N-(2-oxo-5-phenyl-2,3-dihydro-1H-benzo[e][1,4]diazepin-3-yl)-benzamide] | 100 | >100 | 1.5 | – |
| COc1cc(Cl)ccc1C(=O)NC1N=C(c2ccccc2)c2ccccc2NC1=O (stereo not drawn) [Example 88, 4-Chloro-2-methoxy-N-(2-oxo-5-phenyl-2,3-dihydro-1H-benzo[e][1,4]diazepin-3-yl)-benzamide] | 100 | 40 | 0.3 | – |
| Cc1cccc(CNC(=O)NC2N=C(c3ccccc3)c3ccccc3NC2=O)c1 (stereo not drawn) [Example 86, 1-(3-Methyl-benzyl)-3-(2-oxo-5-phenyl-2,3-dihydro-1H-benzo[e][1,4]diazepin-3-yl)-urea] | >100 | 100 | 3 | – |
| O=C(Nc1ccc(Br)cc1C(F)(F)F)NC1N=C(c2ccccc2)c2ccccc2NC1=O (stereo not drawn) [Example 117, 1-(4-Bromo-2-trifluoromethyl-phenyl)-3-(2-oxo-5-phenyl-2,3-dihydro-1H-benzo[e][1,4]diazepin-3-yl)-urea] | 60 | 100 | 6 | – |
| O=C(Nc1ccc(C(F)(F)F)cc1)NC1N=C(c2ccccc2)c2ccccc2NC1=O (stereo not drawn) [Example 87, 1-(2-Oxo-5-phenyl-2,3-dihydro-1H-benzo[e][1,4]diazepin-3-yl)-3-(4-trifluoromethyl-phenyl)-urea] | 50 | 50 | 4 | – |
| O=C(NCc1ccccc1F)NC1N=C(c2ccccc2)c2ccccc2NC1=O (stereo not drawn) [Example 84, 1-(2-Fluoro-benzyl)-3-(2-oxo-5-phenyl-2,3-dihydro-1H-benzo[e][1,4]diazepin-3-yl)-urea] | >100 | >100 | 2 | – |
| COc1cccc(C2=NC(NC(=O)c3ccccc3OC)C(=O)Nc3ccccc32)c1 (stereo not drawn) [Example 109, 2-Methoxy-N-[5-(3-methoxy-phenyl)-2-oxo-2,3-dihydro-1H-benzo[e][1,4]diazepin-3-yl]-benzamide] | 50 | 100 | 2 | – |
| O=C(Nc1ccc([N+](=O)[O-])cc1)NC1N=C(c2ccccc2)c2ccccc2NC1=O (stereo not drawn) [Example 122, 1-(4-Nitro-phenyl)-3-(2-oxo-5-phenyl-2,3-dihydro-1H-benzo[e][1,4]diazepin-3-yl)-urea] | 60 | 20 | 0.4 | – |
| COc1ccccc1C(=O)NC1N=C(c2cccc(C(F)(F)F)c2)c2ccccc2NC1=O (stereo not drawn) [Example 104, 2-Methoxy-N-[2-oxo-5-(3-trifluoromethyl-phenyl)-2,3-dihydro-1H-benzo[e][1,4]diazepin-3-yl]-benzamide] | >100 | >100 | 5 | – |
